In one test the test system is Staphylococcus aureus. Description: Antibacterial activity against Staphylococcus aureus (erythromycin- resistant, methicillin-resistant, ciprofloxacin- resistant) was determined. The format is functional.
A short description of test [1]: Antibacterial activity against Enterococcus faecalis (vancomycin-resistant, methicillin-resistant, ciprofloxacin-resistant). The format is functional, erythromycin faecalis.
Test [2] in a line: Antibacterial activity against Enterococcus faecium (vancomycin-resistant, erythromycin-resistant, ciprofloxacin-resistant). The format is functional.

Drawing on ChEMBL document CHEMBL1151573, “Cyclic homopentapeptides 3. Synthetic modifications to the capreomycins and tuberactinomycins: Compounds with activity against methicillin-resistant Staphylococcus aureus and vancomycin-resistant enterococci” (1997), this text covers MIC for 10 compounds.

Structures are written as SMILES. Converted amounts (≈) assume the structure as drawn. Numbered stars: 1 amine (or outer) side, 2 acyl side, 3 side chain; on linkers, the order of the positions; unused ones are H or OH. Bridge positions count the residues as written; N and C are the ends. Square brackets hold non-standard residues; d marks the D form. Side chains are listed from the residue outwards. Peptide text beside a SMILES is read from it. * marks the point of attachment. ξ: configuration not given here. NH(4-cHex-phenyl) = c1cc(C2CCCCC2)ccc1N*; X1 = NC1=NCCC([C@H](N[*:1])C(=O)[*:2])N1; X2 = N=C1NCCC([C@H](N[*:1])C(=O)[*:2])N1; ΔAla(Z-3-ureido) = NC(=O)N/C=C(\N)C(=O)O; ΔDap(Z) = O=C(/C(=C/N[*:3])N[*:1])[*:2]; β3hR = N=C(N)NCCC[C@H](N)CC(=O)O; β3hOrn = NCCC[C@H](N)CC(=O)*; ξβ3hOrn = NCCCC(N)CC(=O)*; Dap = NC[C@H](N)C(=O)O; X3 = NCC[C@H](O)C(=O)*; CO = O=C([*:1])[*:2]; ξDap = NCC(N)C(=O)O

On to `NC1=NC([C@H]2NC(=O)/C(=C/NC(=O)Nc3ccc(C4CCCCC4)cc3)NC(=O)[C@@H](CO)NC(=O)[C@@H](CO)NC(=O)C(NC(=O)Nc3ccc(Br)cc3)CNC2=O)CCN1` (stereo not given in full), for which the minimal inhibitory concentration (MIC) with Staphylococcus aureus stood at 12.5 µg/mL (≈ 13.9 µM); in test [1], 12.5 µg/mL (≈ 13.9 µM); in test [2] it was 6.25 µg/mL (≈ 6.96 µM).

`O=C(N/N=C/c1cccc2c(OCc3ccc(OC(F)(F)F)cc3)cccc12)c1ccc(O)c(Cl)c1`: the MIC came to 25 µg/mL (≈ 48.6 µM) in the test on Staphylococcus aureus, 12.5 µg/mL (≈ 24.3 µM) in test [1] and 3.12 µg/mL (≈ 6.06 µM) in test [2].

As for `NCC[C@@H](O)[C@H](N)CC(=O)NC1CNC(=O)[C@@H](C2CCN=C(N)N2)NC(=O)/C(=C/Nc2ccc(Cl)c(Cl)c2)NC(=O)[C@@H](CO)NC(=O)[C@@H](CO)NC1=O` (stereo not given in full), the MIC came to 12.5 µg/mL (≈ 15.9 µM) against Staphylococcus aureus, 50 µg/mL (≈ 63.5 µM) in test [1] and 25 µg/mL (≈ 31.7 µM) in test [2].

Consider `NCCCNCCC(=O)NC1CNC(=O)[C@@H](C2CCN=C(N)N2)NC(=O)/C(=C/Nc2ccc(Cl)c(Cl)c2)NC(=O)[C@@H](CO)NC(=O)[C@@H](CO)NC1=O` (stereo not given in full), for which the MIC (in the test on Staphylococcus aureus; in test [1]; in test [2]) was 50 µg/mL (≈ 64.8 µM) throughout.

Take `NCCC[C@H](N)CC(=O)NC[C@@H]1NC(=O)[C@H](CO)NC(=O)C(N)CNC(=O)[C@H](C2CCN=C(N)N2)NC(=O)/C(=C/NC(=O)Nc2ccc(C3CCCCC3)cc2)NC1=O` (stereo partly drawn) (H-[ξDap]S[Dap](β3hOrn)[ΔDap(Z)]([CO-NH(4-cHex-phenyl)])[X1]; lactam 1-C): the minimal inhibitory concentration (MIC) was 1.56 µg/mL (≈ 1.89 µM) against Staphylococcus aureus, 3.12 µg/mL (≈ 3.77 µM) in test [1] and 3.12 µg/mL (≈ 3.77 µM) in test [2].

In the case of `NC(N)=NCCC[C@H](N)CC(=O)NC[C@@H]1NC(=O)[C@H](CO)NC(=O)C(N)CNC(=O)[C@H](C2CCN=C(N)N2)NC(=O)/C(=C/NC(=O)Nc2ccc(C3CCCCC3)cc2)NC1=O` (stereo partly drawn) (H-[ξDap]S[Dap](β3hR)[ΔDap(Z)]([CO-NH(4-cHex-phenyl)])[X1]; lactam 1-C), the results for the minimal inhibitory concentration (MIC) (against Staphylococcus aureus; in test [1]; in test [2]) were 1.56 µg/mL (≈ 1.8 µM), 3.12 µg/mL (≈ 3.59 µM) and 3.12 µg/mL (≈ 3.59 µM), respectively.

Take `NCCC[C@H](N)CC(=O)NC[C@@H]1NC(=O)[C@H](CO)NC(=O)C(NC(=O)[C@@H](O)CCN)CNC(=O)[C@H](C2CCN=C(N)N2)NC(=O)/C(=C/NC(=O)Nc2ccc(C3CCCCC3)cc2)NC1=O` (stereo partly drawn) (X3-[ξDap]S[Dap](β3hOrn)[ΔDap(Z)]([CO-NH(4-cHex-phenyl)])[X1]; lactam 1-C): the MIC against Staphylococcus aureus was found to be 3.12 µg/mL (≈ 3.36 µM); in test [1] it was 6.25 µg/mL (≈ 6.73 µM); in test [2], 6.25 µg/mL (≈ 6.73 µM).

As for `NCC1NC(=O)[C@H](CO)NC(=O)[C@H](CO)NC(=O)C(NC(=O)Nc2ccc(C3CCCCC3)cc2)CNC(=O)[C@H](C2CCN=C(N)N2)NC1=O` (stereo not given in full) ({NH(4-cHex-phenyl)-CO}-[ξDap]SS[ξDap][X1]; lactam 1-C), the MIC (against Staphylococcus aureus; in test [1]; in test [2]) was greater than 100 µg/mL throughout.

On to `C[C@@H]1NC(=O)[C@@H](N)CNC(=O)[C@H](C2CCNC(=N)N2)NC(=O)/C(=C/NC(N)=O)NC(=O)[C@H](CNC(=O)CC(N)CCCN)NC1=O.N=C1NCCC([C@@H]2NC(=O)/C(=C/NC(N)=O)NC(=O)[C@H](CNC(=O)CC(N)CCCN)NC(=O)[C@H](CO)NC(=O)[C@@H](N)CNC2=O)N1` (stereo partly drawn) [CAPREOMYCIN] (H-[Dap]S[Dap](ξβ3hOrn)[ΔAla(Z-3-ureido)][X2]; lactam 1-C), for which the minimal inhibitory concentration (MIC) in the test on Staphylococcus aureus is 100 µg/mL; in test [1] it was greater than 1000 µg/mL; in test [2] it was greater than 1000 µg/mL.

With `CN[C@H](CC(C)C)C(=O)N[C@H]1C(=O)N[C@@H](CC(N)=O)C(=O)N[C@H]2C(=O)N[C@H]3C(=O)N[C@H](C(=O)N[C@H](C(=O)O)c4cc(O)cc(O)c4-c4cc3ccc4O)[C@H](O)c3ccc(c(Cl)c3)Oc3cc2cc(c3O[C@@H]2O[C@H](CO)[C@@H](O)[C@H](O)[C@H]2O[C@H]2C[C@](C)(N)[C@H](O)[C@H](C)O2)Oc2ccc(cc2Cl)[C@H]1O` [VANCOMYCIN], the MIC in the test on Staphylococcus aureus is 0.78 µg/mL (≈ 0.538 µM); in test [1], greater than 100 µg/mL; in test [2], greater than 100 µg/mL.
